Measurements from patent US8227457B2, “Method for treatment of diseases” (DMI Acquisition Corp., priority 2009, dated 2012).

Legend:
[1] = tested on: human retinal endothelial cells; assay: Actin stress fiber formation (rhodamine-phalloidin F-actin staining), VEGF, Example 8; type: cell-based; details: VEGF 25 ng/ml alone, 30 minutes
Description: . […] To counter-stain for nuclei, 100 μl of a 3 μM DAPI (4,6-diamidino-2-phenylindole, dilactate (Invitrogen)) solution was added to each well. After 5 minutes, the cells were washed two times with 100 μl PBS.

VE-Cadherin = assay: VE-cadherin phosphorylation (immunoprecipitation, Pro-Q diamond / SYPRO ruby densitometry); type: cell-based, human; details: danazol 0.1 μM, VEGF 50 ng/ml
Description: The plates were immediately treated to lyse the cells as follows. PBS and the lysis buffer (PBS containing 1% Triton X-100 supplemented with phosphatase inhibitor solutions 1 and 2 (Sigma), protease inhibitor (Sigma) and sodium orthovanadate at a final concentration of 2 mM) were cooled to 4° C. The cells were washed two times with 5 ml of the ice cold PBS and then lysed in 500 μl of the ice cold lysis buffer. The resulting protein extracts were transferred to 1.7 ml microcentrifuge tubes, and cell debris was removed by spinning at 4° C. at 10,000 rpm for 10 minutes. Then, 450 μl of the cleared solution was transferred to tubes containing 25 μl of Protein Dynabeads (Invitrogen) coated with 10 μl C19 anti-VE cadherin polyclonal antibody (Santa Cruz Biotechnology) (coating performed following manufacturer's protocol). The extracts and beads were then incubated overnight at 4° C. on an orbital shaker to capture VE cadherin from the extracts. The beads were then washed four times with ice cold lysis buffer. To release the protein from the beads, they were heated for 10 minutes at 75° C. in SDS loading dye containing 20% reducing dye (Invitrogen).
The released proteins were separated in 4-20% polyacrylamide gels (Invitrogen) at 120 volts for 1 hour. To determine phosphorylation and total protein in the gels, Pro-Q diamond (Invitrogen) and SYPRO ruby (Invitrogen) protein staining were sequentially performed following the manufacturer's protocol. The gels were photographed and densitometry performed using a Kodak imaging station.

[2] = tested on: human retinal endothelial cells; assay: TER of retinal endothelial cell monolayers with steroid receptor antagonists, Example 6; details: 0.1 μM, Example 6
[3] = tested on: human retinal endothelial cells; assay: TER of retinal endothelial cell monolayers with steroid receptor antagonists and hormones, Example 10; details: Example 10, concentrations of Table 10
[4] = tested on: human renal glomerular microvascular endothelial cells; assay: ECIS, Example 12, glomerular cells; details: danazol 1 μM, S1P 1 μM
[5] = tested on: human retinal endothelial cells; assay: ECIS (electric cell-substrate impedance sensing), Example 12, retinal cells
[6] = tested on: human retinal endothelial cells; assay: Actin stress fiber formation (rhodamine-phalloidin F-actin staining), TNFα, Example 7; details: TNFα 50 ng/ml alone, 30 minutes

Compound: VEGF
- F-actin staining pattern [1]: strong stress fiber development
- effect on VE-cadherin phosphorylation (VE-Cadherin): caused an even greater increase in VE-cadherin phosphorylation
- Relative intensity - SYPRO results (total protein) (VE-Cadherin; Nil (ethanol control) 1.00): 0.84

Compound: CC(C)(O)C(=O)Nc1ccc([N+](=O)[O-])c(C(F)(F)F)c1 [Hydroxyflutamide, hydroxyflutamide]
- effect on TER compared to the control [2]: reduced the readings
- effect on TER compared to the control [3]: reduced the readings

Compound: CCCCCCCCCCCCC/C=C/[C@@H](O)[C@@H](N)COP(=O)(O)O [S1P, sphingosine-1 phosphate]
- time after treatment until which there was no effect on ECIS [4]: about 30 hours
- start of increase of ECIS as compared to untreated cells, after treatment ([5]; S1P 1 μM alone): ≤ 15 min
- persistence of increase of ECIS ([5]; danazol 1.0 μM, S1P 1 μM): about 3 hours

Compound: C[C@]12CC[C@H]3[C@@H](CCC4=CC(=O)CC[C@@]43C)[C@@H]1CC[C@@H]2O [Testosterone, testosterone]
- effect on TER compared to the control [3]: reduced the readings very slightly

Compound: C[C@]12CC[C@@H]3c4ccc(O)cc4C[C@@H](CCCCCCCCC[S+]([O-])CCCC(F)(F)C(F)(F)F)[C@H]3[C@@H]1CC[C@@H]2O (stereo partly drawn) [Fluvestrant, fluvestrant]
- effect on TER compared to the control [2]: increased the TER measurements
- effect on TER compared to the control [3]: essentially no effect

Compound: TNFα
- F-actin staining pattern [6]: strong stress fiber development with intensely staining focal points
